≈ marks a conversion by molar mass, not a printed value.
Tested on: human rhinovirus (HRV) serotypes HRV-2, -1A, 1B, -6, -14, -21, -22, -15, -25, -30, -50, -67, -89, -86 and -41
Assay: standard plaque reduction assay, panel of human rhinovirus serotypes in HeLa (Ohio) cells
Format: cell-based
Conditions: MIC = 50% plaque reduction, N serotypes: 15 (Ex. 1, 2, 4, 7, 8), 13 (Ex. 3), 2 (Ex. 5, 6); for MIC50 (Rhinovirus): concentration required to inhibit 50% of the tested serotypes; for MIC80 (Rhinovirus): concentration required to inhibit 80% of the tested serotypes
Experimental: The MIC values were determined by a standard plaque reduction assay as follows: HeLa (Ohio) cells in monolayers were infected at a concentration of virus to give approximately 80 plaques per monolayer in the virus control (no drug present). The compound to be tested was serially diluted and included in the agar-medium overlay and in some cases, during the adsorption period as well. The MIC was determined to be that concentration of compound which reduced the number of plaques by 50% with respect to the untreated virus control.
In the standard test procedure, the compounds were tested against a panel of fifteen human rhinovirus (HRV) serotypes, namely HRV-2, -1A, 1B, -6, -14, -21, -22, -15, -25, -30, -50, -67, -89, -86 and -41. The MIC value for each rhinovirus serotype was determined, and the efficacy of each compound was determined in terms of MIC50 and MIC80 values, which is the concentration of the compound required to inhibit 50% and 80%, respectively, of the tested serotypes.
The following Table gives the testing results with the compounds of the invention. The number of serotypes (N) is indicated after the MIC80 figure.

Row | SMILES | MIC50 (Rhinovirus) [µg/mL] | MIC80 (Rhinovirus) [µg/mL]
1 | Cc1ccc(N2CCC(CCOc3ccc(-c4nnn(C)n4)cc3)CC2)nn1 [Ex. 7] | 6.64 (≈ 17.5 µM) | 0.04 (≈ 0.105 µM)
2 | Cc1ccc(N2CCC(COc3ccc(-c4nnn(C)n4)cc3)CC2)nn1 [Ex. 2] | 13.3 (≈ 36.5 µM) | 0.141 (≈ 0.386 µM)
3 | CCc1ccc(N2CCC(COc3ccc(-c4nnn(C)n4)cc3)CC2)nn1 [Ex. 1] | 13.2 (≈ 34.7 µM) | 0.281 (≈ 0.742 µM)
4 | Cc1ccc(N2CCC(CCOc3c(C)cc(-c4nnn(C)n4)cc3C)CC2)nn1 [Ex. 8] | 16.8 (≈ 41.3 µM) | 0.66 (≈ 1.62 µM)
5 | Cc1ccc(N2CCC(Oc3c(C)cc(-c4nnn(C)n4)cc3C)CC2)nn1 [Ex. 5] | 0.92 (≈ 2.42 µM) | 1.8 (≈ 4.74 µM)
6 | Cc1ccc(N2CCC(Oc3ccc(-c4nnn(C)n4)cc3)CC2)nn1 [Ex. 6] | 0.27 (≈ 0.768 µM) | 0.52 (≈ 1.48 µM)
7 | CCCc1ccc(N2CCC(Oc3ccc(-c4nnn(C)n4)cc3)CC2)nn1 [Ex. 3] | 15.7 (≈ 41.4 µM) | 1.82 (≈ 4.8 µM)
8 | Cc1ccc(N2CCC(COc3c(C)cc(-c4nnn(C)n4)cc3C)CC2)nn1 [Ex. 4] | 20.1 (≈ 51.2 µM) | 1.48 (≈ 3.77 µM)

Reference: US5242924A, “Tetrazolyl-(phenoxy and phenoxyalkyl)-piperidinylpyridazines as antiviral agents” (Sterling Winthrop Inc., priority 1992, dated 1993)
